Experimental data as given in patent publication US20110008465A1, “SESQUITERPENE FORMULATIONS, KITS AND METHODS OF USE THEREOF” (priority 2007, published 2011).

Assays:
Assay in all cases: Chou and Talalay combination assay with beta-caryophyllene
Settings in all cases: anticancer drug in combination with beta-caryophyllene; Chou and Talalay CI; 48 h
PA-1 (ovary cancer) = type: cell-based, human
Experimental: (§1) Each solution was prepared fresh and use within 1 hour after preparation.
(§2) Cells were then harvested using trypsine-EDTA. Cells were counted using a hemocytometer and resuspended in DMEM+10% FBS medium.
(§3) Proliferation assay: Increasing concentrations of the anticancer agents and/or beta-caryophyllene were added to 96-well plate (100 μL per well). The final concentration of solvent in the culture medium was maintained below 0.5% (volume/volume) to avoid solvent toxicity.
(§4) The cells were incubated for 48 h at 37° C. and 5% CO2. Cytotoxicity was assessed using the resazurin reduction test (O'Brien et al., 2000). Fluorescence was measured on an automated 96-well Fluoroskan Ascent FI™ plate reader (Labsystems) using excitation and emission wavelengths of 530 nm and 590 nm, respectively. Resazurin was then removed.
(§5) Microplates were frozen at −20° C. overnight. Plates were thawed, a volume of 100 μl of 0.01% SDS in water was added to the wells, the plates were shaken at room temperature for 3 hours and then frozen once more at −20° C. overnight. […] Plates were shaken in the dark (at room temperature) for at least 2 hours, and fluorescence was measured on an automated 96-well Fluoroskan Ascent FI™ plate reader (Labsystems) using excitation and emission wavelengths of 360 nm and 460 nm, respectively.
(§6) Results were analyzed using the Chou and Talalay method (9) and may be interpreted as follow: Cl>1 represents an antagonist effect of beta-caryophyllene with the corresponding anticancer agent; Cl=1 represents an additive effect of beta-caryophyllene with the corresponding anticancer agent; Cl<1 represents a potentiating effect of beta-caryophyllene with the corresponding anticancer agent.

A-549 (lung cancer) = type: cell-based, human
Experimental: as §1, §2, §3, §4, §5, §6

MCF-7 (breast cancer) = type: cell-based, human
Experimental: as §1, §2, §3, §4, §5, §6

[1] = tested on: MDA-MB-231 (breast cancer); type: cell-based, human
Experimental: as §1, §2, §3, §4, §5, §6

DLD-1 (colon cancer) = type: cell-based, human
Experimental: as §1, §2, §3, §4, §5, §6

PC-3 (prostate cancer) = type: cell-based, human
Experimental: as §1, §2, §3, §4, §5

[2] = tested on: U-251 (human glioblastoma); type: cell-based
Experimental: as §1, §2, §3, §4, §5, §6

MEL-2 (human melanoma) = type: cell-based
Experimental: as §1, §2, §3, §4, §5, §6

[3] = tested on: GL-261 (murine glioblastoma); type: cell-based
Experimental: as §1, §2, §3, §4, §5, §6

B16 (murine melanoma) = type: cell-based
Experimental: as §1, §2, §3, §4, §5, §6

| Compound | Potentiating activity PA-1 (PA-1 (ovary cancer)) | Potentiating activity A-549 (A-549 (lung cancer)) | Potentiating activity MCF-7 (MCF-7 (breast cancer)) | Potentiating activity MDA [1] | Potentiating activity DLD-1 (DLD-1 (colon cancer)) | Potentiating activity PC-3 (PC-3 (prostate cancer)) | Potentiating activity U-251 [2] | Potentiating activity MEL-2 (MEL-2 (human melanoma)) | Potentiating activity GL-261 [3] | Potentiating activity B16 (B16 (murine melanoma)) |
| --- | --- | --- | --- | --- | --- | --- | --- | --- | --- | --- |
| O=c1[nH]cc(F)c(=O)[nH]1 [5-fluorouracil, 5-Fluorouracil] | (2) (High: CI < 0.5 to IC50) | (6) (Antagonist effect: CI > 1) | (1) (Very High: CI equal or below 1 at IC20 and Cl below 0.6 to IC50) | (3) (Moderate: 0.5 < CI < 0.8 at IC50) | (3) (Moderate: 0.5 < CI < 0.8 at IC50) | (2) (High: CI < 0.5 to IC50) | (1) (Very High: potentiating or additive activity to IC20 and CI < 0.6 to IC50) | (1) (Very High: potentiating or additive activity to IC20 and CI < 0.6 to IC50) | (3) (Moderate: 0.5 < CI < 0.8 to IC50) | (1) (Very High: potentiating or additive activity to IC20 and CI < 0.6 to IC50) |
| N.N.O=C([O-])C1(C(=O)[O-])CCC1.[Pt+2] [Carboplatin, carboplatin] | (3) (Moderate: 0.5 < CI < 0.8 to IC50) | (1) (Very High: CI equal or below 1 at IC20 and Cl below 0.6 to IC50) | (1) (Very High: CI equal or below 1 at IC20 and Cl below 0.6 to IC50) | (3) (Moderate: 0.5 < CI < 0.8 at IC50) | (3) (Moderate: 0.5 < CI < 0.8 at IC50) | (6) (Antagonist effect: CI > 1) | (3) (Moderate: 0.5 < CI < 0.8 to IC50) | (3) (Moderate: 0.5 < CI < 0.8 to IC50) | (2) (High: CI < 0.5 to IC50) | (1) (Very High: potentiating or additive activity to IC20 and CI < 0.6 to IC50) |
| O=NN(CCCl)C(=O)NCCCl [Carmustine, carmustine] | (1) (Very High: potentiating or additive activity to IC20 and CI < 0.6 to IC50) | (1) (Very High: CI equal or below 1 at IC20 and Cl below 0.6 to IC50) | (1) (Very High: CI equal or below 1 at IC20 and Cl below 0.6 to IC50) | (3) (Moderate: 0.5 < CI < 0.8 at IC50) | (2) (High: CI below 0.5 at IC50) | (1) (Very High: potentiating or additive activity to IC20 and CI < 0.6 to IC50) | (1) (Very High: potentiating or additive activity to IC20 and CI < 0.6 to IC50) | (1) (Very High: potentiating or additive activity to IC20 and CI < 0.6 to IC50) | (1) (Very High: potentiating or additive activity to IC20 and CI < 0.6 to IC50) | (1) (Very High: potentiating or additive activity to IC20 and CI < 0.6 to IC50) |
| O=C(O)CCCc1ccc(N(CCCl)CCCl)cc1 [Chlorambucil, chlorambucil] | (3) (Moderate: 0.5 < CI < 0.8 to IC50) | (3) (Moderate: 0.5 < CI < 0.8 at IC50) | (1) (Very High: CI equal or below 1 at IC20 and Cl below 0.6 to IC50) | (1) (Very High: CI equal or below 1 at IC20 and Cl below 0.6 to IC50) | (3) (Moderate: 0.5 < CI < 0.8 at IC50) |  | (2) (High: CI < 0.5 to IC50) | (1) (Very High: potentiating or additive activity to IC20 and CI < 0.6 to IC50) | (6) (Antagonist effect: CI > 1) | (1) (Very High: potentiating or additive activity to IC20 and CI < 0.6 to IC50) |
